The test system of experiment [1] is ApoB secretion, HepG2 cells. Description: Quantification of the secretion of ApoB. The format is cell-based. Conditions: Homo sapiens, 24 hours of incubation, secreted apoB immunoprecipitated, read-out: pIC50 values (= −log IC50 value) (converted). Here is the method:
HepG2 cells were cultured in 24-well plates in MEM Rega 3 containing 10% fetal calf serum. At 70% confluency, the medium was changed and the test compound or carrier (DMSO, 0.4% final concentration) was added. After 24 hours of incubation, the medium was transferred to Eppendorf tubes and cleared by centrifugation. A sheep antibody directed against either apoB was added to the supernatant and the mixture was kept at 8° C. for 24 hours. Then, rabbit anti-sheep antibody was added and the immune complex was allowed to precipitate for 24 hours at 8° C. The immunoprecipitate was pelleted by centrifugation for 25 minutes at 1320 g and washed twice with a buffer containing 40 mM Mops, 40 mM NaH2PO4, 100 mM NaF, 0.2 mM DTT, 5 mM EDTA, 5 mM EGTA, 1% Triton-X-100, 0.5% sodium deoxycholate (DOC), 0.1% SDS, 0.2 μM leupeptin and 0.2 μM PMSF. Radioactivity in the pellet was quantified by liquid scintillation counting.
Resulting IC50 values are enumerated in Table C.1. When the calculated IC50 was below 6, not enough data points were available at the tested concentrations to calculate an IC50 value.

The target in the next experiment is MTP (Homo sapiens, UniProt P55157). Put plainly: MTP assay (triglyceride transfer from donor to acceptor vesicles). The format is biochemical. The following applies: MTP activity, percent triglyceride transfer, 37° C.; read-out: pIC50 values (= −log IC50 value) (converted). Here is the method: MTP activity was measured using an assay similar to one described by J. R. Wetterau and D. B. Zilversmit in Chemistry and Physics of Lipids, 38, 205-222 (1985). To prepare the donor and acceptor vesicles, the appropriate lipids in chloroform were put into a glass test tube and dried under a stream of N2. A buffer containing 15 mM Tris-HCl pH 7.5, 1 mM EDTA, 40 mM NaCl, 0.02% NaN3 (assay buffer) was added to the dried lipid. The mixture was vortexed briefly and the lipids were then allowed to hydrate for 20 min on ice. Vesicles were then prepared by bath sonication (Branson 2200) at room temperature for maximum 15 min. Butylated hydroxytoluene was included in all vesicle preparations at a concentration of 0.1%. The lipid transfer assay mixture contained donor vesicles (40 nmol phosphatidylcholine, 7.5 mol % of cardiolipin and 0.25 mol % glycerol tri [1-^14C]-oleate), acceptor vesicles (240 nmol phosphatidylcholine) and 5 mg BSA in a total volume of 675 μl in a 1.5 ml microcentrifuge tube. Test compounds were added dissolved in DMSO (0.13% final concentration). After 5 minutes of pre-incubation at 37° C., the reaction was started by the addition of MTP in 100 μl dialysis buffer. The reaction was stopped by the addition of 400 μl DEAE-52 cellulose pre-equilibrated in 15 mM Tris-HCl pH 7.5, 1 mM EDTA, 0.02% NaN3 (1:1, vol/vol). The mixture was agitated for 4 min and centrifuged for 2 min at maximum speed in an Eppendorf centrifuge (4° C.) to pellet the DEAE-52-bound donor vesicles. An aliquot of the supernatant containing the acceptor liposomes was counted and the [^14C]-counts were used to calculate the percent triglyceride transfer from donor to acceptor vesicles.
Resulting IC50 values are enumerated in Table C.2. When the calculated IC50 was below 7, not enough data points were available at the tested concentrations to calculate an IC50 value.

Usually IC50 stands for the midpoint of a concentration-inhibition curve.

MTP, sequence (P55157 19-894, species assumed): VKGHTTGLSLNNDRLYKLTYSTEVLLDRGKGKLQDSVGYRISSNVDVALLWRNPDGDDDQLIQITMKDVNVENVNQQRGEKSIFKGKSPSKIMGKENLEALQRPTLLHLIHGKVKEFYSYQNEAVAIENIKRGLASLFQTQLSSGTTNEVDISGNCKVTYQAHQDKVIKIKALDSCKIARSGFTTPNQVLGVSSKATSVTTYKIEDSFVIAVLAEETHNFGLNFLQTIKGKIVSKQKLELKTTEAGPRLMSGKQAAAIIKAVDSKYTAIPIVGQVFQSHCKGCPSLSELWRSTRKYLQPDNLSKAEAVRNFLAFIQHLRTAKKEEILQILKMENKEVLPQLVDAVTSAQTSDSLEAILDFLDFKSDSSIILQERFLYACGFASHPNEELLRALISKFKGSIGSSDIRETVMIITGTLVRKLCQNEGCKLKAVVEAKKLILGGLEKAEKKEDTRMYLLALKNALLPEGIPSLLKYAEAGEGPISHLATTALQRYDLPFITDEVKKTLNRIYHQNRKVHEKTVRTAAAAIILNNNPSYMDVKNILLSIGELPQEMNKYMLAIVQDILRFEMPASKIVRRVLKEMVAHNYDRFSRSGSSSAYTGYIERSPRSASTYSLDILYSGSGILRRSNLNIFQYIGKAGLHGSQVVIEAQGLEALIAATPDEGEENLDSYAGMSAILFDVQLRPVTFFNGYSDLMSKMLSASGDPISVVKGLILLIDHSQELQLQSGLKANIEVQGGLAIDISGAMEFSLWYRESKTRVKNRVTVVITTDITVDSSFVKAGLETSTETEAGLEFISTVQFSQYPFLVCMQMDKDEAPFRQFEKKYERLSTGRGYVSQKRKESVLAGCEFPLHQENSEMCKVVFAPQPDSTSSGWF
MTP, sequence (P07237 18-508 partner, species assumed): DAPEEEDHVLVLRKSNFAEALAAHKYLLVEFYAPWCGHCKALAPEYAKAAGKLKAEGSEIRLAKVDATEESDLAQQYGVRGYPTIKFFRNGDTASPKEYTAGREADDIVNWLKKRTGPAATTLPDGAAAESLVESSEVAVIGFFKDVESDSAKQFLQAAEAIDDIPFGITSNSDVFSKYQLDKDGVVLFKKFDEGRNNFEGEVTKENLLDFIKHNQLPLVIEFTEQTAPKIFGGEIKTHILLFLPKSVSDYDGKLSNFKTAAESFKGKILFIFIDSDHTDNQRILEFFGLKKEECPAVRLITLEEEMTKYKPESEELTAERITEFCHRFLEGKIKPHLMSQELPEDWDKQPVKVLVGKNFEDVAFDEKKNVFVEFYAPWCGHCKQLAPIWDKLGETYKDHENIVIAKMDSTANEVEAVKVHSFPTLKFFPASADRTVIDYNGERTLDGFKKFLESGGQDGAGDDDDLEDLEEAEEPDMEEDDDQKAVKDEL

Turning to `CCOC(=O)CC[C@H](NC(=O)CC1CCN(c2ccc(NC(=O)c3ccccc3-c3ccc(C(F)(F)F)cc3)cc2)CC1)C(=O)OCC` [Compound 34], the IC50 in experiment [1] is above 1 µM; at MTP, 0.0121 µM.

With `CCOC(=O)C1CCN(C(=O)CC2CCN(c3ccc(NC(=O)c4ccccc4-c4ccc(C(F)(F)F)cc4)cc3)CC2)CC1` [Compound 35], the IC50 in experiment [1] is above 1 µM; at MTP, above 0.1 µM.

As to `CCOC(=O)CNC(=O)CC1CCN(c2ccc(NC(=O)c3ccccc3-c3ccc(C(F)(F)F)cc3)cc2)CC1` [Compound 37], the IC50 in experiment [1] is 0.0448 µM; on MTP it was 0.00501 µM.

Take `CCOC(=O)C(C)(C)NC(=O)CC1CCN(c2ccc(NC(=O)c3cccc(C)c3-c3ccc(C(F)(F)F)cc3)cc2)CC1` [Compound 42]: the figures for the half-inhibitory concentration (IC50) (in experiment [1]; on MTP) were 0.152 µM and 0.0149 µM, respectively.

For `COC(=O)CNC(=O)CC1CCN(c2ccc(NC(=O)c3cccc(C)c3-c3ccc(C(F)(F)F)cc3)cc2)CC1` [Compound 43], the 50% inhibitory concentration (IC50) in experiment [1] is 0.00703 µM; on MTP, 0.0104 µM.

On to `COC(=O)[C@@H](C)NC(=O)CC1CCN(c2ccc(NC(=O)c3cccc(C)c3-c3ccc(C(F)(F)F)cc3)cc2)CC1` [Compound 44], for which the figures for the IC50 (in experiment [1]; at MTP) were 0.0211 µM and 0.0017 µM, respectively.

Consider `CCNC(=O)[C@H](C)NC(=O)CC1CCN(c2ccc(NC(=O)c3cccc(C)c3-c3ccc(C(F)(F)F)cc3)cc2)CC1` [Compound 49], for which the half-inhibitory concentration (IC50) in experiment [1] was 0.0173 µM; at MTP, 0.0091 µM.

In the case of `CCNC(=O)COC(=O)CC1CCN(c2ccc(NC(=O)c3cccc(C)c3-c3ccc(C(F)(F)F)cc3)cc2)CC1` [Compound 51], the IC50 in experiment [1] is 0.0155 µM; on MTP, 0.00604 µM.

Consider `CCOC(=O)CC[C@@H](NC(=O)CC1CCN(c2ccc(NC(=O)c3cccc(C)c3-c3ccc(C(F)(F)F)cc3)cc2)CC1)C(=O)OCC` [Compound 52], for which the IC50 in experiment [1] was 0.074 µM; at MTP, 0.003 µM.

Regarding `COC(=O)[C@H](Cc1c[nH]c2ccccc12)NC(=O)CC1CCN(c2ccc(NC(=O)c3cccc(C)c3-c3ccc(C(F)(F)F)cc3)cc2)CC1` [Compound 53], the 50% inhibitory concentration (IC50) in experiment [1] was 0.126 µM; on MTP it was 0.0157 µM.

As to `COC(=O)CCC(NC(=O)CC1CCN(c2ccc(NC(=O)c3cccc(C)c3-c3ccc(C(F)(F)F)cc3)cc2)CC1)C(=O)OC` (stereo not drawn) [Compound 54], the IC50 is 0.488 µM in experiment [1] and 0.00311 µM at MTP.

`COC(=O)CCNC(=O)CC1CCN(c2ccc(NC(=O)c3cccc(C)c3-c3ccc(C(F)(F)F)cc3)cc2)CC1` [Compound 55]: the results for the IC50 (in experiment [1]; on MTP) were 0.00603 µM and 0.00162 µM, respectively.

(Values after patent US8772494B2, “N-aryl piperidine substituted biphenylcarboxamides as inhibitors of apolipoprotein b” (Janssen Pharmaceutica N.V., priority 2003, dated 2014).)
